Where a name gives a salt, the structure may show the parent alone. Read-outs that look alike come from different tables or passages of the source.

Common to all, as to format: biochemical
Test [1] has as its target T1, recombinant human VAP-1 (Homo sapiens, UniProt Q16853).
T1 construct: purchased R&D systems
T1 sequence (Q16853 1-763): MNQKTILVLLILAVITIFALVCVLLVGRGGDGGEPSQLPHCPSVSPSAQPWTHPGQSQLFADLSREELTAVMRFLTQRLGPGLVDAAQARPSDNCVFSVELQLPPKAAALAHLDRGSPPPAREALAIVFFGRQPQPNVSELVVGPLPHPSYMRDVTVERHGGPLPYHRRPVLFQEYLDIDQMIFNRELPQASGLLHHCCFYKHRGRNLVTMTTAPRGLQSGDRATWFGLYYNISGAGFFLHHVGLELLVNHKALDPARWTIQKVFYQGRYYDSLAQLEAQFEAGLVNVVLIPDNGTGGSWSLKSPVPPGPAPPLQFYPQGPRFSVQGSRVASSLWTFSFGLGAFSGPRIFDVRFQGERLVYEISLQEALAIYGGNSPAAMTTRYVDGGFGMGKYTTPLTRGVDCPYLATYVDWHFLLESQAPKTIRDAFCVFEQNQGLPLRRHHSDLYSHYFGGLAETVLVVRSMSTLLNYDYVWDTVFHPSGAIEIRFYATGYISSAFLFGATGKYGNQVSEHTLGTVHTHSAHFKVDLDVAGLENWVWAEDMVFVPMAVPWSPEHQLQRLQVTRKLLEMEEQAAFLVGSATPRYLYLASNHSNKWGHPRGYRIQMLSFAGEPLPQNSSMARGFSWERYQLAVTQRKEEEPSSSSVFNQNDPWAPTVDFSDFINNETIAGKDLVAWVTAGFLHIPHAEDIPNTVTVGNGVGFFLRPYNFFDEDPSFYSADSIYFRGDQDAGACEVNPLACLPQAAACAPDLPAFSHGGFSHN
Kind of test: Activity evaluation on recombinant human VAP-1 (Amplex Red/HRP-coupled hydrogen peroxide assay, benzylamine substrate). As to conditions: read-out: Inhibitory Activity (IC50, nM) human VAP-1. The method, boiled down:
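Hydrogen peroxide from benzylamine (1 mM) oxidation by human recombinant VAP-1 detected via HRP-coupled Amplex Red (200 uM) fluorescence, kinetic over 1–2 h. Enzyme and compound preincubated 30 min at 37 °C, pH 7.4 phosphate; 8-point dose response, signal-rate decrease versus DMSO control fitted to four-parameter logistic for IC50.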

The target of test [2] is T2, recombinant human DAO (diamine oxidase) (Homo sapiens, UniProt P19801).
T2 construct: purchased R&D systems
T2 sequence (P19801 20-751): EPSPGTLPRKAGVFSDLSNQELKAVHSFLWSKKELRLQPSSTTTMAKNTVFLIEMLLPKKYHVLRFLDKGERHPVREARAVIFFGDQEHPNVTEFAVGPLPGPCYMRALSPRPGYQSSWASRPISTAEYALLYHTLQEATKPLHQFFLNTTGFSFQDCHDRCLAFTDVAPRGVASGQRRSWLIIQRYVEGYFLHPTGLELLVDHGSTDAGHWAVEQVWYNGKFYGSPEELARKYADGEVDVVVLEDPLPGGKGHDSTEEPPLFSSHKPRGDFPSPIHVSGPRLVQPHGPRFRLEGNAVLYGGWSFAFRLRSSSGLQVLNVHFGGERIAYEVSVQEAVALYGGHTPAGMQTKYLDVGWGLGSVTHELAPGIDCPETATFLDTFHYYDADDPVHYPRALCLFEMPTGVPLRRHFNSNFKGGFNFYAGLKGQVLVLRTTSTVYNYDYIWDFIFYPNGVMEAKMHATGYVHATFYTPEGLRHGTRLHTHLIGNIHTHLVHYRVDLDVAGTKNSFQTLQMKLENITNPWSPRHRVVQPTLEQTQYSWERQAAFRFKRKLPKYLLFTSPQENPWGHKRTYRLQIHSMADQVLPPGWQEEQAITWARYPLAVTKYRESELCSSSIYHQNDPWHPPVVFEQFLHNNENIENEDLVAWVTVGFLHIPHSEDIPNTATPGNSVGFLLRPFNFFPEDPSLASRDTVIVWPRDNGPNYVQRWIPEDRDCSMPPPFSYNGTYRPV
Kind of test: Activity evaluation on recombinant human DAO (Amplex Red/HRP-coupled assay, 1 mM putrescine substrate). The note with it: read-out: Inhibitory Activity (IC50, nM) DAO. The method, boiled down: (§1)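 Each oxidase is tested with its own substrate: MAO-A with 0.5 mM tyramine, MAO-B with 1 mM benzylamine, DAO with 1 mM putrescine. After 30 min enzyme-compound preincubation at 37 °C, Amplex Red (200 uM) plus HRP (1 U/mL) reports H2O2 as fluorescence; IC50 is fitted from eight-point curves.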

Test [3] concerns the target T3, recombinant human MAO-A (monoamine oxidase-A) (Homo sapiens, UniProt P21397).
T3 construct: purchased Sigma-Aldrich
T3 sequence (P21397 1-527): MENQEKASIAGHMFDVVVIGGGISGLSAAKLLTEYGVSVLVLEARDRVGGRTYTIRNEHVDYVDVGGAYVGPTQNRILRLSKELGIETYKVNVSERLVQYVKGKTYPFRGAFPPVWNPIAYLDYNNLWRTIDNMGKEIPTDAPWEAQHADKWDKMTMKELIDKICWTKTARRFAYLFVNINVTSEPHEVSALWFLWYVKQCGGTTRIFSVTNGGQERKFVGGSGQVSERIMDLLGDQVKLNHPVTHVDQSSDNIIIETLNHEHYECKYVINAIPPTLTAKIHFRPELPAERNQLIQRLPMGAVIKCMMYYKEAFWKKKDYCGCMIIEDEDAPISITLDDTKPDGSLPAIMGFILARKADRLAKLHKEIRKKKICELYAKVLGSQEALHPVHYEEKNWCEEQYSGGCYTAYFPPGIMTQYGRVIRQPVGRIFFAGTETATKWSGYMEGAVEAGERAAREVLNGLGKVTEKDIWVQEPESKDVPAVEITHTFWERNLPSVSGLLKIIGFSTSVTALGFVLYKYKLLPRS
Kind of test: Activity evaluation on recombinant human MAO-A (Amplex Red/HRP-coupled assay, 0.5 mM tyramine substrate). The note with it: read-out: Inhibitory Activity (IC50, nM) MAO-A. In short, it runs like this: as §1

Test [4] has as its target T4, recombinant human MAO-B (monoamine oxidase-B) (Homo sapiens, UniProt P27338).
T4 construct: purchased Sigma-Aldrich
T4 sequence (P27338 1-520): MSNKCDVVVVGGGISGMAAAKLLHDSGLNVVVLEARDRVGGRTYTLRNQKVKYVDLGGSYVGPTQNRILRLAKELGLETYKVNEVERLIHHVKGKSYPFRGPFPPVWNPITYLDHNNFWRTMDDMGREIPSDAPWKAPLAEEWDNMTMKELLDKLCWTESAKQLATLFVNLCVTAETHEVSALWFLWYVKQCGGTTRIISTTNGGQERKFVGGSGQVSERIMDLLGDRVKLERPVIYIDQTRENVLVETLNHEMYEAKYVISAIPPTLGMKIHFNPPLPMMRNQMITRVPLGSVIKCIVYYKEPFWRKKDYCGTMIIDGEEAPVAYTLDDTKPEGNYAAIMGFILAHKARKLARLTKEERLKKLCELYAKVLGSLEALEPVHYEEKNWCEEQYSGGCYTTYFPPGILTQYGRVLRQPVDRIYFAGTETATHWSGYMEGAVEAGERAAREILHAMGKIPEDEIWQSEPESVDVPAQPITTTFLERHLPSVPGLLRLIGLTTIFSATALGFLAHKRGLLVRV
Kind of test: Activity evaluation on recombinant human MAO-B (Amplex Red/HRP-coupled assay, 1 mM benzylamine substrate). As to conditions: read-out: Inhibitory Activity (IC50, nM) MAO-B. The method, boiled down:
as §1

Setting [5] is: recombinant human VAP-1, 30 min preincubation at 37° C., 1 mM benzylamine.
Setting [6] is: recombinant human VAP-1, benzylamine substrate.

Broadly, the IC50 is the concentration that inhibits the measured activity by half. As for `NCC(Cn1ncn(CCc2cccs2)c1=O)=C(F)F` [Example 172, 2-[2-(aminomethyl)-3,3-difluoro-allyl]-4-[2-(2-thienyl)ethyl]-1,2,4-triazol-3-one Trifluoroacetate], the IC50 was 13 nM in test [1] (setting [5]), greater than 100000 nM in test [2] (1 mM putrescine), greater than 100000 nM in test [3] (0.5 mM tyramine) and 61000 nM in test [4] (1 mM benzylamine).

Turning to `COCCNc1ncc(-c2cnc(-n3cnn(CC(CN)=C(F)F)c3=O)c(C)c2)cn1` [Example 222, 2-[2-(aminomethyl)-3,3-difluoro-allyl]-4-[5-[2-(2-methoxyethylamino)pyrimidin-5-yl]-3-methyl-2-pyridyl]-1,2,4-triazol-3-one Trifluoroacetate], the IC50 was 1 nM in test [1] (setting [6]), 4000 nM in test [2] (1 mM putrescine substrate), greater than 100000 nM in test [3] (0.5 mM tyramine substrate) and greater than 100000 nM in test [4] (1 mM benzylamine substrate).

Regarding `CN(C)c1ccc(-c2ccc(CCn3cnn(CC(CN)=C(F)F)c3=O)s2)cn1` [Example 176, 2-[2-(aminomethyl)-3,3-difluoro-allyl]-4-[2-[5-[6-(dimethylamino)-3-pyridyl]-2-thienyl]ethyl]-1,2,4-triazol-3-one Trifluoroacetate], the IC50 in test [1] (setting [5]) was 0.5 nM; in test [2] (1 mM putrescine) it was 1100 nM; in test [3] (0.5 mM tyramine), greater than 100000 nM; in test [4] (1 mM benzylamine), greater than 100000 nM.

`Cc1cc(-c2csc(Cn3cnn(CC(CN)=C(F)F)c3=O)c2)cc2c1NC(=O)CC2` [Example 151, 6-[5-[[1-[2-(aminomethyl)-3,3-difluoro-allyl]-5-oxo-1,2,4-triazol-4-yl]methyl]-3-thienyl]-8-methyl-3,4-dihydro-1H-quinolin-2-one Trifluoroacetate]: the half-maximal inhibitory concentration (IC50) in test [1] (setting [5]) was 0.3 nM; in test [2] (1 mM putrescine), 6600 nM; in test [3] (0.5 mM tyramine), greater than 100000 nM; in test [4] (1 mM benzylamine), 26100 nM.

`Cc1cc(-c2ccc(N3CCNCC3)cc2)cnc1-n1cnn(CC(CN)=C(F)F)c1=O` [Example 69, 2-[2-(aminomethyl)-3,3-difluoro-allyl]-4-[3-methyl-5-(4-piperazin-1-ylphenyl)-2-pyridyl]-1,2,4-triazol-3-one Ditrifluoroacetate]: the concentration for half-maximal inhibition (IC50) in test [1] (setting [5]) was 1.2 nM; in test [2] (1 mM putrescine), greater than 100000 nM; in test [3] (0.5 mM tyramine) it was greater than 100000 nM; in test [4] (1 mM benzylamine), greater than 100000 nM.

In the case of `NCC(Cn1ncn(Cc2ccc(-c3ccc(N4CCNCC4)cc3)cc2)c1=O)=C(F)F` [Example 266, 2-[2-(aminomethyl)-3,3-difluoro-allyl]-4-[[4-(4-piperazin-1-ylphenyl)phenyl]methyl]-1,2,4-triazol-3-one Ditrifluoroacetate], the IC50 in test [1] (setting [6]) was 9.1 nM; in test [2] (1 mM putrescine substrate), 330 nM; in test [3] (0.5 mM tyramine substrate) it was greater than 100000 nM; in test [4] (1 mM benzylamine substrate), greater than 100000 nM.

With `CN(C)c1ccc(-c2ccc(-n3cnn(CC(CN)=C(F)F)c3=O)cn2)cn1` [Example 41, 2-[2-(aminomethyl)-3,3-difluoro-allyl]-4-[6-[6-(dimethylamino)-3-pyridyl]-3-pyridyl]-1,2,4-triazol-3-one Trifluoroacetate], the half-inhibitory concentration (IC50) in test [1] (setting [5]) is 0.2 nM; in test [2] (1 mM putrescine), 120 nM; in test [3] (0.5 mM tyramine) it was greater than 100000 nM; in test [4] (1 mM benzylamine) it was 470 nM.

On to `NCC(Cn1ncn(-c2ncc(Br)cc2F)c1=O)=C(F)F` [Example 14, 2-[2-(aminomethyl)-3,3-difluoro-allyl]-4-(5-bromo-3-fluoro-2-pyridyl)-1,2,4-triazol-3-one Trifluoroacetate], for which the 50% inhibitory concentration (IC50) is 1.4 nM in test [1] (setting [5]), 4100 nM in test [2] (1 mM putrescine), greater than 100000 nM in test [3] (0.5 mM tyramine) and 40000 nM in test [4] (1 mM benzylamine).

In the case of `NCC(Cn1ncn(Cc2cc3ccc(-c4ccc(C(F)(F)F)nc4)cc3s2)c1=O)=C(F)F` [Example 199, 2-[2-(aminomethyl)-3,3-difluoro-allyl]-4-[[6-[6-(trifluoromethyl)-3-pyridyl]benzothiophen-2-yl]methyl]-1,2,4-triazol-3-one Trifluoroacetate], the half-inhibitory concentration (IC50) is 1.7 nM in test [1] (setting [6]), 15000 nM in test [2] (1 mM putrescine substrate), greater than 100000 nM in test [3] (0.5 mM tyramine substrate) and 1100 nM in test [4] (1 mM benzylamine substrate).

With `NCC(Cn1ncn(Cc2ccc(-c3cnn(Cc4ccccc4)c3)s2)c1=O)=C(F)F` [Example 297, 2-[2-(aminomethyl)-3,3-difluoro-allyl]-4-[[5-(1-benzylpyrazol-4-yl)-2-thienyl]methyl]-1,2,4-triazol-3-one Trifluoroacetate], the half-maximal inhibitory concentration (IC50) was 1.9 nM in test [1] (setting [6]), 14800 nM in test [2] (1 mM putrescine substrate), greater than 100000 nM in test [3] (0.5 mM tyramine substrate) and greater than 100000 nM in test [4] (1 mM benzylamine substrate).

Take `NCC(Cn1ncn(CCc2ccc(-c3ccc(N4CCNCC4)cc3)s2)c1=O)=C(F)F` [Example 174, 2-[2-(aminomethyl)-3,3-difluoro-allyl]-4-[2-[5-(4-piperazin-1-ylphenyl)-2-thienyl]ethyl]-1,2,4-triazol-3-one Ditrifluoroacetate]: the half-maximal inhibitory concentration (IC50) in test [1] (setting [5]) is 1.3 nM; in test [2] (1 mM putrescine) it was 29 nM; in test [3] (0.5 mM tyramine), greater than 100000 nM; in test [4] (1 mM benzylamine), greater than 100000 nM.

Values taken from patent publication US11168073B2, “3,3-difluoroallylamines or salts thereof and pharmaceutical compositions comprising the same” (YUHAN CORPORATION, priority 2018, dated 2021).
